Reference: patent publication US20170305965A1, “Fab REGION-BINDING PEPTIDE” (KANEKA CORPORATION, priority 2014, published 2017)

What was measured:
[1] = system: IgG-Fab of anti-HER2 monoclonal antibody (Trastuzumab); assay: Biacore 3000 surface plasmon resonance analysis of affinity of SpG variants for immobilized IgG-Fab; format: binding, human; conditions: for KA (affinity constant, KA=kon/koff) / koff / kon: Anti-HER2 antibody - Fab immobilized on CM5, peptide 0.1-0.8 μM, 25° C., pH 7.4, 1:1 binding model; for KA Vs. Wild: ratio of KA to that of GB2*-Wild.1d, Anti-HER2 antibody - Fab
Description: A humanized monoclonal IgG product as a raw material was fragmented into a Fab fragment and a Fc fragment using papain, and only the Fab fragment was separated and purified. Hereinafter, a method for producing IgG-Fab derived from anti-HER2 monoclonal antibody (generic name: Trastuzumab) is described. In the present disclosure, when other IgG-Fab was used for evaluation, the fragment was basically prepared in a similar method.
Specifically, a humanized monoclonal IgG product (“HERCEPTIN” manufactured by CHUGAI PHARMACEUTICAL CO., LTD., in the case of anti-HER2 monoclonal antibody) was dissolved in a buffer for papain treatment (0.1 M AcOH—AcONa, 2 mM EDTA, 1 mM cysteine, pH 5.5), and agarose on which papain was immobilized (“Papain Agarose from papaya latex” manufactured by SIGMA) was added thereto. The mixture was incubated with stirring by a rotator at 37° C. for about 8 hours. The IgG-Fab was purified by recovering the IgG-Fab as a flow-through fraction in an affinity chromatography using KanCapA column (manufactured by GE Healthcare Bioscience) from the reaction mixture which contained both of a Fab fragment and a Fc fragment and which was separated from the agarose on which papain was immobilized. The obtained crude IgG-Fab solution was subjected to purification by gel filtration chromatography using Superdex 75 10/300 GL column to obtain IgG-Fab solution. In the chromatography, a standard buffer was used for equilibration and separation. Similarly to the above-described Example 1, AKTAprime plus system was used in the chromatography for protein purification.
The affinity of each of the SpG-β2* variant obtained in the above-described Example 1(2) for the IgG-Fab of anti-HER2 monoclonal antibody was evaluated using a biosensor Biacore 3000 (manufactured by GE Healthcare Bioscience) utilizing surface plasmon resonance. In the present Example, the IgG-Fab obtained in the above-described Example 2(1) was immobilized on a sensor tip, and each of the peptide was flown on the tip to detect the interaction between the two. The IgG-Fab was immobilized on a sensor tip CM5 by amine coupling method using N-hydroxysuccinimide (NHS) and N-ethyl-N′-(3-dimethylaminopropyl)carbodiimide hydrochloride (EDC), and ethanolamine was used for blocking. All of the sensor tip and reagents for immobilization was manufactured by GE Healthcare Bioscience. The IgG-Fab solution was diluted to about 10 times using a buffer for immobilization (10 mM AcOH—AcONa, pH 4.5), and the IgG-Fab was immobilized on the sensor tip in accordance with the protocol attached to the Biacore 3000. In addition, a reference cell as negative control was also prepared by activating another flow cell on the tip with EDC/NHS and then immobilizing human serum albumin (manufactured by Wako Pure Chemical Industries, Ltd.). Peptide solutions of each of the SpG-β2* variant having concentrations of […] were prepared using a running buffer (20 mM NaH2PO4—Na2HPO4, 150 mM NaCl, 0.005% P-20, pH 7.4). The peptide solution was added to the sensor tip in a flow rate of 10 μL/min for 4 minutes. Bonding response curves at the time of addition (association phase, for 4 minutes) and after the addition (dissociation phase, for 4 minutes) were sequentially obtained at a measurement temperature of 25° C. After each measurement, the added peptide remaining on the sensor tip was removed by flowing the running buffer for 5 minutes or more; and about 10 mM NaOH was added for wash between the measurements if required.
However, the concentration of a protein solution was adjusted to 0.8 μM, bonding response curves at the time of adding the solution (association phase, for 1 minute) and after the addition (dissociation phase, for 2 minutes) were obtained, and a fitting analysis was carried out using one concentration of the solution.

[2] = target: Fab region of IgG; conditions: cited from earlier work

In the case of “GB2*-E15W.1d: SpG-β2* one residue variant with E15W, amino acid sequence SEQ ID NO: 23 (TTYKLVINGKTLKGWTTTKAVDAETAERAFRQYATDNGVEGMWTYDPATKTFTVTE; SpG Mutant)”, the “KA (affinity constant, KA=kon/koff)” value [1] is reported as 1.08e+07 M⁻¹, the koff [1] is reported as 0.011 s⁻¹ and the kon [1] is reported as 119000 s/M. For the same substance, the “KA Vs. Wild” value [1] was 4.8.
With “GB2*-T02R/E15Y.1d: two residues variant of SpG-β2* with T02R and E15Y, SEQ ID NO: 27 (TRYKLVINGKTLKGYTTTKAVDAETAERAFRQYATDNGVEGMWTYDPATKTFTVTE; SpG Mutant)” the “binding response (bonding response curve, FIG. 3)” value ([1]; protein solution 0.8 μM, raw bonding response curve compared under the same concentration) was “higher than those of GB2*-Wild.1d and GB2*-T02R.1d”.
For “GB2*-T02R.1d: SpG-β2* one residue variant with T02R, amino acid sequence SEQ ID NO: 19 (TRYKLVINGKTLKGETTTKAVDAETAERAFRQYATDNGVEGMWTYDPATKTFTVTE; SpG Mutant)”, the “KA (affinity constant, KA=kon/koff)” value [1] was 9.8e+06 M⁻¹, the koff [1] was 0.01 s⁻¹ and the kon [1] was 98000 s/M. The “KA Vs. Wild” value [1] was 4.3.
With “GB2-E15W.1d: E15W mutation introduced into wild SpG-β2 domain, SEQ ID NO: 25 (TTYKLVINGKTLKGWTTTKAVDAETAEKAFKQYANDNGVDGVWTYDDATKTFTVTE; SpG Mutant)” the “association constant KA” value ([1]; fitting analysis using one concentration, 0.8 μM, association phase 1 minute, dissociation phase 2 minutes) was 1.6e+06 M⁻¹.
For “GB2*-Wild.1d: SpG β2 domain variant having excellent thermal stability, SEQ ID NO: 3; comparative example before introducing the mutation (TTYKLVINGKTLKGETTTKAVDAETAERAFRQYATDNGVEGMWTYDPATKTFTVTE; SpG Mutant) [reference compound]”, the “KA (affinity constant, KA=kon/koff)” value [1] was 2.3e+06 M⁻¹, the koff [1] was 0.038 s⁻¹ and the kon [1] was 88000 s/M. For the same substance, the “difference between association constant of the Patent Document 2 variant and association constant shown in Table 2” value ([1]; GB2*-Wild.1d (Table 2) versus variant of Patent Document 2) was “about 1.4 times”.
For “GB2*-E15Y.1d: SpG-β2* one residue variant with E15Y, amino acid sequence SEQ ID NO: 21 (TTYKLVINGKTLKGYTTTKAVDAETAERAFRQYATDNGVEGMWTYDPATKTFTVTE; SpG Mutant)”, the “KA (affinity constant, KA=kon/koff)” value [1] was 9.3e+06 M⁻¹, the koff [1] was 0.01 s⁻¹ and the kon [1] was 92000 s/M. The “KA Vs. Wild” value [1] was 4.0.
For “GB2-Wild.1d: wild β2 domain of Protein G, SEQ ID NO: 2 (TTYKLVINGKTLKGETTTKAVDAETAEKAFKQYANDNGVDGVWTYDDATKTFTVTE; Streptococcus sp. GX7809)”, the Kd ([2]; described in Table 1 of Patent Document 2, read-out: dissociation constant) is listed as 2570 nM and the “association constant (inverse number of the dissociation constant of Patent Document 2)” value ([2]; inverse of the dissociation constant in Table 1 of Patent Document 2) is listed as 400000 M⁻¹.
